Measurements published in patent US12077503B2, “Substituted cyclic amides and their use as herbicides” (FMC CORPORATION, priority 2015, dated 2024).

Experiments:
Format in all cases: in vivo
[1] = test system: giant foxtail (Setaria faberii); assay: Test A postemergence; settings: postemergence; for Plant response rating, Foxtail, Giant: 0 to 100 scale (0 no effect, 100 complete control)
Outline: (§1)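 Preemergence directed soil spray on seeded pots, or postemergence application to plants 2–10 cm, one- to two-leaf. Solvent mixture non-phytotoxic, with surfactant. Scored ~10 d later, visually, 0–100 vs untreated.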

[2] = test system: Kochia (Kochia scoparia); assay: Test A postemergence; settings: postemergence; for Plant response rating, Kochia: 0 to 100 scale (0 no effect, 100 complete control)
Outline: as §1

[3] = test system: Galium (catchweed bedstraw, Galium aparine); assay: Test A postemergence; settings: postemergence; for Plant response rating, Galium: 0 to 100 scale (0 no effect, 100 complete control)
Outline: as §1

[4] = test system: pigweed (Amaranthus retroflexus); assay: Test A postemergence; settings: postemergence; for Plant response rating, Pigweed: 0 to 100 scale (0 no effect, 100 complete control)
Outline: as §1

[5] = test system: ryegrass, Italian (Italian ryegrass, Lolium multiflorum); assay: Test A postemergence; settings: postemergence; for Plant response rating, Ryegrass, Italian: 0 to 100 scale (0 no effect, 100 complete control)
Outline: as §1

[6] = test system: barnyardgrass (Echinochloa crus-galli); assay: Test A postemergence; settings: postemergence; for Plant response rating, Barnyardgrass: 0 to 100 scale (0 no effect, 100 complete control)
Outline: as §1

[7] = test system: corn (Zea mays); assay: Test A postemergence; settings: postemergence; for Plant response rating, Corn: 0 to 100 scale (0 no effect, 100 complete control)
Outline: as §1

[8] = test system: ragweed (common ragweed, Ambrosia elatior); assay: Test A postemergence; settings: postemergence; for Plant response rating, Ragweed: 0 to 100 scale (0 no effect, 100 complete control)
Outline: as §1

[9] = test system: blackgrass (Alopecurus myosuroides); assay: Test A postemergence; settings: postemergence; for Plant response rating, Blackgrass: 0 to 100 scale (0 no effect, 100 complete control)
Outline: as §1

[10] = test system: wheat (Triticum aestivum); assay: Test A postemergence; settings: postemergence; for Plant response rating, Wheat: 0 to 100 scale (0 no effect, 100 complete control)
Outline: as §1

[11] = test system: ducksalad (Heteranthera limosa); assay: Test B flooded paddy test; settings: Flood, 250 g ai/ha; 0 to 100 scale where 0 is no effect and 100 is complete control; 13 to 15 d
Outline: (§2)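 Evaluation by eye, against controls, occurred 13–15 d post-treatment in a greenhouse, using a 0 (no effect) to 100 (complete control) scale. Application was into the paddy water, 3 cm deep over the soil, on 2-leaf plants.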

[12] = test system: rice (Oryra sativa); assay: Test B flooded paddy test; settings: Flood, 250 g ai/ha; 0 to 100 scale where 0 is no effect and 100 is complete control; 13 to 15 d
Outline: as §2

[13] = test system: sedge, umbrella (small-flower umbrella sedge, Cyperus difformis); assay: Test B flooded paddy test; settings: Flood, 250 g ai/ha; 0 to 100 scale where 0 is no effect and 100 is complete control; 13 to 15 d
Outline: as §2

[14] = test system: barnyardgrass (Echinochloa crus-galli); assay: Test B flooded paddy test; settings: Flood, 250 g ai/ha; 0 to 100 scale where 0 is no effect and 100 is complete control; 13 to 15 d
Outline: as §2

[15] = test system: giant foxtail (Setaria faberii); assay: Test A preemergence
Outline: as §1

[16] = test system: Kochia (Kochia scoparia); assay: Test A preemergence
Outline: as §1

[17] = test system: pigweed (Amaranthus retroflexus); assay: Test A preemergence
[18] = test system: ryegrass, Italian (Italian ryegrass, Lolium multiflorum); assay: Test A preemergence
Outline: as §1

[19] = test system: barnyardgrass (Echinochloa crus-galli); assay: Test A preemergence
Outline: as §1

[20] = test system: ragweed (common ragweed, Ambrosia elatior); assay: Test A preemergence
Outline: as §1

[21] = test system: ducksalad (Heteranthera limosa); assay: Test C flooded paddy test; settings: Flood; for Plant response rating (scale of 0 to 100), Ducksalad: 0 is no effect, 100 is complete control
Outline: (§3)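 Test compounds were dosed straight into the flood water of pots holding 2-leaf-stage plants, with water kept 3 cm above the soil. Greenhouse plants were scored visually against controls after 13 to 15 d, from 0 (no effect) to 100 (complete control).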

[22] = test system: rice (Oryza sativa); assay: Test C flooded paddy test; settings: Flood; for Plant response rating (scale of 0 to 100), Rice: 0 is no effect, 100 is complete control
Outline: as §3

[23] = test system: sedge, umbrella (small-flower umbrella sedge, Cyperus difformis); assay: Test C flooded paddy test; settings: Flood; for Plant response rating (scale of 0 to 100), Sedge, Umbrella: 0 is no effect, 100 is complete control
Outline: as §3

[24] = test system: barnyardgrass (Echinochloa crus-galli); assay: Test C flooded paddy test; settings: Flood; for Plant response rating (scale of 0 to 100), Barnyardgrass: 0 is no effect, 100 is complete control
Outline: as §3

[25] = test system: morningglory (Ipomoea spp.); assay: Test A postemergence; settings: Ipomoea, post-emergence, 240 h; 1000 g ai/ha, postemergence; 0 to 100 scale, 0 no effect, 100 complete control; read-out: Plant response rating, Morningglory
Outline: as §1

[26] = 125 g ai/ha, visual rating after approx. 10 d
[27] = 500 g ai/ha, visual injury, approx. 10 d
[28] = 125 g ai/ha, Preemergence, visual injury after approximately 10 d, 0 to 100 scale where 0 is no effect and 100 is complete control
[29] = 500 g ai/ha, preemergence, 0 to 100 scale, 0 = no effect, 100 = complete control
[30] = 31 g ai/ha, scale 0 to 100 (0 no effect, 100 complete control), 13 to 15 d
[31] = Preemergence, 1000 g ai/ha, 0 is no effect, 100 is complete control

With `Cc1ccc(C2CN(C)C(=O)C2C(=O)Nc2ccc(F)cc2F)cc1` (stereo not drawn) [Compound 664] the “Plant response rating, Foxtail, Giant” value [1, 26] was 90, the “Plant response rating, Foxtail, Giant” value [1, 27] was 90 and the “Plant response rating, Kochia” value [2, 26] was 60. For the same compound, the “Plant response rating, Kochia” value [2, 27] was 70, the “Plant response rating, Galium” value [3, 26] was 50 and the “Plant response rating, Galium” value [3, 27] was 60. For the same compound, the “Plant response rating, Pigweed” value [4, 26] was 20, the “Plant response rating, Pigweed” value [4, 27] was 20 and the “Plant response rating, Ryegrass, Italian” value [5, 26] was 30. The “Plant response rating, Ryegrass, Italian” value [5, 27] was 70, the “Plant response rating, Barnyardgrass” value [6, 26] was 90 and the “Plant response rating, Barnyardgrass” value [6, 27] was 90. For the same compound, the “Plant response rating, Corn” value [7, 26] was 50, the “Plant response rating, Corn” value [7, 27] was 90 and the “Plant response rating, Ragweed” value [8, 26] was 10. For the same compound, the “Plant response rating, Ragweed” value [8, 27] was 20, the “Plant response rating, Blackgrass” value [9, 26] was 50 and the “Plant response rating, Blackgrass” value [9, 27] was 60. The “Plant response rating, Wheat” value [10, 26] was 50, the “Plant response rating, Wheat” value [10, 27] was 70 and the “Plant response rating, Ducksalad” value [11] was 100. The “Plant response rating, Rice” value [12] was 0, the “Plant response rating, Sedge, Umbrella” value [13] was 0 and the “Plant response rating, Barnyardgrass” value [14] was 85. The “Plant response rating, Foxtail, Giant” value [15, 28] was 90, the “Plant response rating, Foxtail, Giant” value [15, 29] was 100 and the “Plant response rating, Kochia” value [16, 28] was 70. The “Plant response rating, Kochia” value [16, 29] was 70, the “Plant response rating, Pigweed” value [17, 28] was 60 and the “Plant response rating, Pigweed” value [17, 29] was 60. For the same compound, the “Plant response rating, Ryegrass, Italian” value [18, 28] was 20, the “Plant response rating, Ryegrass, Italian” value [18, 29] was 80 and the “Plant response rating, Barnyardgrass” value [19, 28] was 90. For the same compound, the “Plant response rating, Barnyardgrass” value [19, 29] was 90, the “Plant response rating, Ragweed” value [20, 28] was 20 and the “Plant response rating, Ragweed” value [20, 29] was 80. The “Plant response rating, Ducksalad” value [21, 30] was 45, the “Plant response rating (scale of 0 to 100), Ducksalad” value ([21]; 62 g ai/ha) was 70 and the “Plant response rating (scale of 0 to 100), Ducksalad” value ([21]; 125 g ai/ha) was 85. For the same compound, the “Plant response rating (scale of 0 to 100), Ducksalad” value ([21]; 250 g ai/ha) was 100, the “Plant response rating, Rice” value [22, 30] was 0 and the “Plant response rating (scale of 0 to 100), Rice” value ([22]; 62 g ai/ha) was 0. For the same compound, the “Plant response rating (scale of 0 to 100), Rice” value ([22]; 125 g ai/ha) was 0, the “Plant response rating (scale of 0 to 100), Rice” value ([22]; 250 g ai/ha) was 0 and the “Plant response rating, Sedge, Umbrella” value [23, 30] was 0. For the same compound, the “Plant response rating (scale of 0 to 100), Sedge, Umbrella” value ([23]; 62 g ai/ha) was 0, the “Plant response rating (scale of 0 to 100), Sedge, Umbrella” value ([23]; 125 g ai/ha) was 0 and the “Plant response rating (scale of 0 to 100), Sedge, Umbrella” value ([23]; 250 g ai/ha) was 0. For the same compound, the “Plant response rating, Barnyardgrass” value [24, 30] was 0, the “Plant response rating (scale of 0 to 100), Barnyardgrass” value ([24]; 62 g ai/ha) was 65 and the “Plant response rating (scale of 0 to 100), Barnyardgrass” value ([24]; 125 g ai/ha) was 70. The “Plant response rating (scale of 0 to 100), Barnyardgrass” value ([24]; 250 g ai/ha) was 70.

With `O=C(CN1C[C@H](c2cc(F)cc(F)c2)[C@@H](C(=O)Nc2cccc(F)c2F)C1=O)c1ccccc1` [Compound 784] the pest or weed control at 1000 g/ha ([1]; Setaria faberi, post-emergence, 240 h, 1000 g ai/ha, 0 to 100 scale, 0 no effect, 100 complete control, read-out: Plant response rating, Foxtail, Giant) was 90%, the pest or weed control at 1000 g/ha [25] was 0% and the pest or weed control at 1000 g/ha ([2]; Bassia scoparia, post-emergence, 240 h, 1000 g ai/ha, 0 to 100 scale, 0 no effect, 100 complete control, read-out: Plant response rating, Kochia) was 0%. It also gave a pest or weed control at 1000 g/ha ([3]; Galium, post-emergence, 240 h, 1000 g ai/ha, 0 to 100 scale, 0 no effect, 100 complete control, read-out: Plant response rating, Galium) of 0%, a pest or weed control at 1000 g/ha ([4]; Amaranthus retroflexus, post-emergence, 240 h, 1000 g ai/ha, 0 to 100 scale, 0 no effect, 100 complete control, read-out: Plant response rating, Pigweed) of 0% and a pest or weed control at 1000 g/ha ([5]; Lolium multiflorum, post-emergence, 240 h, 1000 g ai/ha, 0 to 100 scale, 0 no effect, 100 complete control, read-out: Plant response rating, Ryegrass, Italian) of 0%. For the same compound, the pest or weed control at 1000 g/ha ([6]; Echinochloa crus-galli, post-emergence, 240 h, 1000 g ai/ha, 0 to 100 scale, 0 no effect, 100 complete control, read-out: Plant response rating, Barnyardgrass) was 90%, the Corn plant response rating (crop injury, 0 = no effect, 100 = complete kill) at 1000 g/ha ([7]; Zea mays, post-emergence, 240 h, 1000 g ai/ha, 0 to 100 scale, 0 no effect, 100 complete control) was 0% and the pest or weed control at 1000 g/ha ([8]; Ambrosia artemisiifolia, post-emergence, 240 h, 1000 g ai/ha, 0 to 100 scale, 0 no effect, 100 complete control, read-out: Plant response rating, Ragweed) was 0%. The pest or weed control at 1000 g/ha ([9]; Alopecurus myosuroides, post-emergence, 240 h, 1000 g ai/ha, 0 to 100 scale, 0 no effect, 100 complete control, read-out: Plant response rating, Blackgrass) was 20%, the plant injury at 1000 g/ha ([10]; Triticum aestivum, post-emergence, 240 h, 1000 g ai/ha, 0 to 100 scale, 0 no effect, 100 complete control, read-out: Plant response rating, Wheat) was 0% and the “Foxtail, Giant plant response rating (0 to 100 scale)” value [15, 31] was 90. The “Kochia plant response rating (0 to 100 scale)” value [16, 31] was 0, the “Pigweed plant response rating (0 to 100 scale)” value [17, 31] was 0 and the “Ryegrass, Italian plant response rating (0 to 100 scale)” value [18, 31] was 0. The “Barnyardgrass plant response rating (0 to 100 scale)” value [19, 31] was 80 and the “Ragweed plant response rating (0 to 100 scale)” value [20, 31] was 0.
